Several values for one entry are separate records, joined by “and”; a condition that tells them apart may be missing. Equal values may be shown once.
What was measured:
[1] = Plasma concentrations after single intravenous dose in mice; format: in vivo; conditions: male, CD-1, mouse, 0.5 mg/kg intravenous, read-out: Terminal elimination half life (converted)
Method: Three male 7-9 week old male CD-1 mice from Lingchang were treated intravenously with 0.5 mg/kg of TQS-168. TQS-168 was prepared in solution of 31.6% DMAC+36.8% Ethanol+31.6% Propylene glycol. Blood was collected at 0.5, 3, 10, 30, 60, 120, 240, 480 and 720 minutes after a single dose of TQS-168 and then processed. Blood samples were collected via saphenous vein puncture into a K2EDTA tube, centrifuged at 4° C. at 4600 rpm for 5 minutes and plasma collected and stored at less than −20° C. prior to being analyzed by LC-MS for TQS-168 concentrations. Data are presented as concentration and mean concentration of TQS-168 per volume of plasma (ng/mL), as shown in FIG. 10 (individual mice) and FIG. 11 (average), respectively.

[2] = Plasma concentrations after single intravenous dose in rats; format: in vivo; conditions: male, Sprague Dawley, rat, 0.5 mg/kg intravenous
Method: A total of 3 male, 7-9 week old, Sprague Dawley rats from Vital River were administered a single intravenous dose of TQS-168 at 0.5 mg/kg, in a volume of 0.5 mL/kg. TQS-168 was prepared in solution of 31.6% DMAC+36.8% ethanol+31.6% propylene glycol.
Blood samples were collected at 0.5, 3, 10, 30, 60, 120, 240, 480 and 720 minutes after a single dose of TQS-168 and then processed. Blood samples were collected via saphenous vein puncture into a K2EDTA tube, centrifuged at 4° C. at 4600 rpm for 5 minutes, and plasma collected and stored at less than −20° C. prior to being analyzed by LC-MS for TQS-168 concentrations. Data are presented as concentrations of TQS-168 (ng/mL) in plasma and graphed in FIG. 15 (individual rats) and 16 (average).

[3] = Phase 1 multiple dose trial, plasma pharmacokinetics (Part 2); conditions: for Tmax: median
clinical = conditions: male, human, in vivo, 120 mg
[4] = human plasma, Regimen I: 120 mg TQS-168 SDD QD 7 days, fasted, geometric mean
[5] = human plasma, Regimen J 90 mg SDD fed, Day 1
[6] = human plasma, Regimen J 90 mg SDD fed, Day 7
[7] = human plasma, Regimen J: 90 mg TQS-168 SDD QD 7 days, fed, geometric mean
[8] = human plasma, Regimen K: 300 mg TQS-168 SDD QD 7 days, fed, geometric mean

CC(C)(C)c1ccc(-c2nc3ccccc3[nH]2)cc1 [TQS-168, 2-(4-tert-butylphenyl)-1H-benzimidazole]
half-life [1]: 8.4 min
half-life [2]: 9.72 min
clearance ([2]; read-out: clearance rate (converted)): 155 mL/min/kg
T1/2 ([3]; Regimen J, 90 mg TQS-168 SDD QD, fed, Day 7, geometric mean): 4.46 h
T1/2 ([3]; Regimen K, 300 mg TQS-168 SDD QD, fed, Day 7, geometric mean): 5.67 h
AUC(0-tau) ([3]; human plasma, Regimen I: 120 mg TQS-168 SDD QD 7 days, fasted, Day 1, geometric mean): 438 ng·h/mL
AUC(0-tau) ([3]; human plasma, Regimen I: 120 mg TQS-168 SDD QD 7 days, fasted, Day 7, geometric mean): 692 ng·h/mL
accumulation ratio based on AUC(0-tau) [3, 4]: 1.58
accumulation ratio based on Cmax [3, 4]: 1.59
maximum individual AUC(0-tau) as share of the AUC(0-24) exposure limit [3, 5]: 10.9%
maximum individual Cmax as share of the Cmax exposure limit [3, 5]: 21.6%
maximum individual AUC(0-tau) as share of the AUC(0-24) exposure limit [3, 6]: 19.5%
maximum individual Cmax as share of the Cmax exposure limit [3, 6]: 30.9%
AUC(0-tau) ([3]; human plasma, Regimen J: 90 mg TQS-168 SDD QD 7 days, fed, Day 1, geometric mean): 223 ng·h/mL
AUC(0-tau) ([3]; human plasma, Regimen J: 90 mg TQS-168 SDD QD 7 days, fed, Day 7, geometric mean): 227 ng·h/mL
accumulation ratio based on AUC(0-tau) [3, 7]: 1.24
accumulation ratio based on Cmax [3, 7]: 1.03
AUC(0-tau) ([3]; human plasma, Regimen K: 300 mg TQS-168 SDD QD 7 days, fed, Day 1, geometric mean): 1210 ng·h/mL
AUC(0-tau) ([3]; human plasma, Regimen K: 300 mg TQS-168 SDD QD 7 days, fed, Day 7, geometric mean): 2010 ng·h/mL
accumulation ratio based on AUC(0-tau) [3, 8]: 1.66
accumulation ratio based on Cmax [3, 8]: 1.74
AUC ([3]; male, human, in vivo, 90 mg, AUC(0-tau), Regimen J, 90 mg TQS-168 SDD QD, fed, Day 1, tau = 24 h, geometric mean): 223 ng·h/mL
AUC ([3]; male, human, in vivo, 90 mg, AUC(0-tau), Regimen J, 90 mg TQS-168 SDD QD, fed, Day 7, tau = 24 h, geometric mean): 227 ng·h/mL
AUC ([3]; male, human, in vivo, 90 mg, AUC(0-tau), human plasma, Regimen J: 90 mg TQS-168 SDD QD 7 days, fed, Day 1, geometric mean): 223 ng·h/mL
AUC ([3]; male, human, in vivo, 90 mg, AUC(0-tau), human plasma, Regimen J: 90 mg TQS-168 SDD QD 7 days, fed, Day 7, geometric mean): 227 ng·h/mL
Cmax ([3]; male, human, in vivo, 90 mg, Cmax, Regimen J, 90 mg TQS-168 SDD QD, fed, Day 1, plasma, geometric mean): 47.4 ng/mL
Cmax ([3]; male, human, in vivo, 90 mg, Cmax, Regimen J, 90 mg TQS-168 SDD QD, fed, Day 7, plasma, geometric mean): 48.8 ng/mL
Cmax ([3]; male, human, in vivo, 90 mg, Cmax, human plasma, Regimen J: 90 mg TQS-168 SDD QD 7 days, fed, Day 1): 190 nM
Cmax ([3]; male, human, in vivo, 90 mg, Cmax, human plasma, Regimen J: 90 mg TQS-168 SDD QD 7 days, fed, Day 1, geometric mean): 47.4 ng/mL
Cmax ([3]; male, human, in vivo, 90 mg, Cmax, human plasma, Regimen J: 90 mg TQS-168 SDD QD 7 days, fed, Day 7): 190 nM
Cmax ([3]; male, human, in vivo, 90 mg, Cmax, human plasma, Regimen J: 90 mg TQS-168 SDD QD 7 days, fed, Day 7, geometric mean): 48.8 ng/mL
Tmax ([3]; male, human, in vivo, 90 mg, Tmax (median), Regimen J, 90 mg TQS-168 SDD QD, fed, Day 7, plasma): 3 h
Tmax ([3]; male, human, in vivo, 90 mg, Tmax, human plasma, Regimen J: 90 mg TQS-168 SDD QD 7 days, fed, Day 1): 3 h
Tmax ([3]; male, human, in vivo, 90 mg, Tmax, human plasma, Regimen J: 90 mg TQS-168 SDD QD 7 days, fed, Day 7): 3 h
AUC ([3]; male, human, in vivo, 90 mg, maximum individual AUC(0-tau), human plasma, Regimen J 90 mg SDD fed, Day 1): 299 ng·h/mL
AUC ([3]; male, human, in vivo, 90 mg, maximum individual AUC(0-tau), human plasma, Regimen J 90 mg SDD fed, Day 7): 535 ng·h/mL
Cmax ([3]; male, human, in vivo, 90 mg, maximum individual Cmax, human plasma, Regimen J 90 mg SDD fed, Day 1): 65.8 ng/mL
Cmax ([3]; male, human, in vivo, 90 mg, maximum individual Cmax, human plasma, Regimen J 90 mg SDD fed, Day 7): 94.1 ng/mL
half-life ([3]; male, human, in vivo, 120 mg): 7.7 h
AUC ([3]; male, human, in vivo, 120 mg, AUC(0-tau), human plasma, Regimen I: 120 mg TQS-168 SDD QD 7 days, fasted, Day 1, geometric mean): 438 ng·h/mL
AUC ([3]; male, human, in vivo, 120 mg, AUC(0-tau), human plasma, Regimen I: 120 mg TQS-168 SDD QD 7 days, fasted, Day 7, geometric mean): 692 ng·h/mL
Cmax ([3]; male, human, in vivo, 120 mg, Cmax, human plasma, Regimen I: 120 mg TQS-168 SDD QD 7 days, fasted, Day 1): 690 nM
Cmax ([3]; male, human, in vivo, 120 mg, Cmax, human plasma, Regimen I: 120 mg TQS-168 SDD QD 7 days, fasted, Day 1, geometric mean): 172 ng/mL
Cmax ([3]; male, human, in vivo, 120 mg, Cmax, human plasma, Regimen I: 120 mg TQS-168 SDD QD 7 days, fasted, Day 7): 1090 nM
Cmax ([3]; male, human, in vivo, 120 mg, Cmax, human plasma, Regimen I: 120 mg TQS-168 SDD QD 7 days, fasted, Day 7, geometric mean): 273 ng/mL
Tmax ([3]; male, human, in vivo, 120 mg, Tmax, human plasma, Regimen I: 120 mg TQS-168 SDD QD 7 days, fasted, Day 1): 1 h
Tmax ([3]; male, human, in vivo, 120 mg, Tmax, human plasma, Regimen I: 120 mg TQS-168 SDD QD 7 days, fasted, Day 7): 0.75 h
AUC ([3]; male, human, in vivo, 300 mg, AUC(0-tau), Regimen K, 300 mg TQS-168 SDD QD, fed, Day 1, tau = 24 h, geometric mean): 1210 ng·h/mL
AUC ([3]; male, human, in vivo, 300 mg, AUC(0-tau), Regimen K, 300 mg TQS-168 SDD QD, fed, Day 7, tau = 24 h, geometric mean): 2010 ng·h/mL
AUC ([3]; male, human, in vivo, 300 mg, AUC(0-tau), human plasma, Regimen K: 300 mg TQS-168 SDD QD 7 days, fed, Day 1, geometric mean): 1210 ng·h/mL
AUC ([3]; male, human, in vivo, 300 mg, AUC(0-tau), human plasma, Regimen K: 300 mg TQS-168 SDD QD 7 days, fed, Day 7, geometric mean): 2010 ng·h/mL
Cmax ([3]; male, human, in vivo, 300 mg, Cmax, Regimen K, 300 mg TQS-168 SDD QD, fed, Day 1, plasma, geometric mean): 229 ng/mL
Cmax ([3]; male, human, in vivo, 300 mg, Cmax, Regimen K, 300 mg TQS-168 SDD QD, fed, Day 7, plasma, geometric mean): 400 ng/mL
Cmax ([3]; male, human, in vivo, 300 mg, Cmax, human plasma, Regimen K: 300 mg TQS-168 SDD QD 7 days, fed, Day 1): 910 nM
Cmax ([3]; male, human, in vivo, 300 mg, Cmax, human plasma, Regimen K: 300 mg TQS-168 SDD QD 7 days, fed, Day 1, geometric mean): 229 ng/mL
Cmax ([3]; male, human, in vivo, 300 mg, Cmax, human plasma, Regimen K: 300 mg TQS-168 SDD QD 7 days, fed, Day 7): 1600 nM
Cmax ([3]; male, human, in vivo, 300 mg, Cmax, human plasma, Regimen K: 300 mg TQS-168 SDD QD 7 days, fed, Day 7, geometric mean): 400 ng/mL
Tmax ([3]; male, human, in vivo, 300 mg, Tmax (median), Regimen K, 300 mg TQS-168 SDD QD, fed, Day 7, plasma): 4 h
Tmax ([3]; male, human, in vivo, 300 mg, Tmax, human plasma, Regimen K: 300 mg TQS-168 SDD QD 7 days, fed, Day 1): 2 h
Tmax ([3]; male, human, in vivo, 300 mg, Tmax, human plasma, Regimen K: 300 mg TQS-168 SDD QD 7 days, fed, Day 7): 4 h
Tmax ([3]; male, human, in vivo, po, 90 mg, Tmax (median), Regimen J, 90 mg TQS-168 SDD powder for oral suspension QD, fed, Day 1, plasma): 3 h
Tmax ([3]; male, human, in vivo, po, 300 mg, Tmax (median), Regimen K, 300 mg TQS-168 SDD powder for oral suspension QD, fed, Day 1, plasma): 2 h

CC(C)(C)c1ccc(-c2nc3cc(O)ccc3[nH]2)cc1 [TQS-621]
half-life (clinical): 10.2 h
AUC (clinical; AUC(0-tau)): 2270 ng·h/mL
Cmax (clinical; Cmax): 331 ng/mL and 1.24 µM
Tmax (clinical; Tmax): 1.5 h
Tmax (clinical; Tmax (median)): 1.75 h
Tmax (clinical; po, Tmax (median)): 1.5 h
